Patent US5935945A, “Methods of treating or preventing cardiac arrhythmia” (Merck & Co., Inc., priority 1997, dated 1999)
Read-outs that look alike come from different tables or passages of the source.

Experiments:
[1] = tested on: atrial flutter
Experimental: In this model, atrial flutter was induced following a Y-shaped surgical lesion comprised of an intercaval incision and a connecting incision across the right atrium. […] Bipolar electrodes also were sutured to the left ventricle for measurement of ventricular excitation threshold (VET) and ventricular relative (VRRP at 2× VET) and effective refractory periods (VERP at 10×VET). The following cardiac electrophysiologic parameters also were measured before test agent administration and at the termination of the study: AH interval, an index of AV nodal conduction; HV interval, an index of His-ventricular conduction time; P-A interval, an index of intra-atrial conduction; and H-EG interval, an index of ventricular conduction; and paced ECG QT interval. AV nodal functional refractory period (AVNFRP) and SA conduction time (SACT) were determined by the introduction of atrial extrastimuli during sinus rhythm, and the monitoring of ventricular response. Electrocardiographic intervals were determined during sinus rhythm; the rate-corrected ECG QTc interval was calculated as: QTc=QT (msec)/√R-R (sec).
Sustained atrial flutter was initiated in three dogs by electrical burst pacing (6-20 Hz) of the atria; atrial rates ranged from 440-530 cycles/min.

[2] = tested on: IK1 (inward rectifier K^+ current); assay: Voltage-clamp measurement of IK1 in guinea pig ventricular myocytes; type: cell-based; conditions: @ 3 μM
Experimental: (§1) Guinea pig ventricular myocytes were isolated using a modification of the procedure described by Mitra et al., Am. J. Physiol. 249:H1056-60 (1985). Excised hearts were perfused through the aorta (retrograde fashion) at a rate of 10 ml/min with oxygenated, warmed (37° C.) solutions described below. The heart was initially perfused for 7 minutes with a Tyrode's solution containing, (in mM): 132 NaCl, 4 KCl, 1.2 MgCl2, 10 HEPES, 5 glucose, pH=7.2. The heart was then perfused with the same nominally Ca^2+ -free solution containing 150 units/ml Type II collagenase (Worthington) and 0.5 units/ml Type XIV protease (Sigma) for 8 minutes. This perfusate was followed by a Tyrode's solution containing 0.2 mM CaCl2 (without enzymes) for 5 minutes. The digested ventricles were cut into small pieces and gently shaken until cells were visibly dispersed. The cells were stored at room temperature until use, within 8 hours after isolation.
(§2) The suction microelectrode technique described by Giles, W. R. and Shibata, E. F., "Voltage clamp of bull-frog cardiac pacemaker cells: a quantitative analysis of potassium currents", J. Physiol. 368:265-292 (1985) was used to voltage clamp the cells. Microelectrodes were made by using a two stage puller from square bore (1.0 mm o.d.) borosilicate capillary tubing. Pipettes were filled with 0.5 M K gluconate, 25 mM KCl and 5 mM K2 ATP. The electrodes had resistances of 3 to 7 M.OMEGA. when filled with this solution. After establishing whole-cell recording mode, negative pressure was maintained on the pipette using a 1 ml gas-tight syringe attached via air tight tubing to the suction port of the microelectrode holder. This minimized dialysis of the cell with the pipette solution.
(§3) To record K^+ currents, the cells were bathed in a Ca^2+ -free Tyrode's solution containing […]. […] To record Ca^2+ currents, the cells were bathed in Tyrode's solution containing 1.8 mM Ca^2+ without nisoldipine. The cell chamber was superfused with solutions at a rate of 1-2 ml/minute, while maintaining the temperature at 35±1° C. A List EPC-7 clamp amplifier was used to voltage clamp the isolated cells. […] (Sanguinetti M. C. and Jurkiewicz, N. K., "Two components of cardiac delayed rectifier K^+ current: Differential sensitivity to block by Class III antiarrhythmic agents", J. Gen Physiol 1990; 96:194-214.) Data was analyzed as % block from control membrane currents.
(§4) Nisoldipine was prepared as a 4 mM stock solution in polyethylene glycol 200. […] At the final concentrations used neither polyethylene glycol 200 nor dimethyl sulfoxide had any effect on any of the measured membrane currents.
(§5) Selectivity for block of cardiac K^+ channels, IK1, IKr, and IKs was determined as previously described in guinea pig ventricular myocytes (U.S. Pat. No. 5,428,031).

[3] = target: T1, IKs (slowly activating delayed rectifier K^+ current) (Cavia porcellus, UniProt O70344); assay: Voltage-clamp measurement of IKs in guinea pig ventricular myocytes; type: cell-based; conditions: @ 3 μM; read-out: % Block (Guinea Pig Ventricle) IKs
T1 construct: Guinea pig ventricular myocytes were isolated; from tissue; host or cells: isolated guinea pig ventricular myocytes
Experimental: as §1, §2, §3, §4, §5

[4] = target: T2, IKr (rapidly activating delayed rectifier K^+ current) (Cavia porcellus, UniProt O08703); assay: Voltage-clamp measurement of IKr in guinea pig ventricular myocytes; type: cell-based; conditions: @ 3 μM; read-out: % Block (Guinea Pig Ventricle) IKr
T2 construct: Guinea pig ventricular myocytes were isolated; from tissue; host or cells: isolated guinea pig ventricular myocytes
T2 sequence (O08703 1-1294): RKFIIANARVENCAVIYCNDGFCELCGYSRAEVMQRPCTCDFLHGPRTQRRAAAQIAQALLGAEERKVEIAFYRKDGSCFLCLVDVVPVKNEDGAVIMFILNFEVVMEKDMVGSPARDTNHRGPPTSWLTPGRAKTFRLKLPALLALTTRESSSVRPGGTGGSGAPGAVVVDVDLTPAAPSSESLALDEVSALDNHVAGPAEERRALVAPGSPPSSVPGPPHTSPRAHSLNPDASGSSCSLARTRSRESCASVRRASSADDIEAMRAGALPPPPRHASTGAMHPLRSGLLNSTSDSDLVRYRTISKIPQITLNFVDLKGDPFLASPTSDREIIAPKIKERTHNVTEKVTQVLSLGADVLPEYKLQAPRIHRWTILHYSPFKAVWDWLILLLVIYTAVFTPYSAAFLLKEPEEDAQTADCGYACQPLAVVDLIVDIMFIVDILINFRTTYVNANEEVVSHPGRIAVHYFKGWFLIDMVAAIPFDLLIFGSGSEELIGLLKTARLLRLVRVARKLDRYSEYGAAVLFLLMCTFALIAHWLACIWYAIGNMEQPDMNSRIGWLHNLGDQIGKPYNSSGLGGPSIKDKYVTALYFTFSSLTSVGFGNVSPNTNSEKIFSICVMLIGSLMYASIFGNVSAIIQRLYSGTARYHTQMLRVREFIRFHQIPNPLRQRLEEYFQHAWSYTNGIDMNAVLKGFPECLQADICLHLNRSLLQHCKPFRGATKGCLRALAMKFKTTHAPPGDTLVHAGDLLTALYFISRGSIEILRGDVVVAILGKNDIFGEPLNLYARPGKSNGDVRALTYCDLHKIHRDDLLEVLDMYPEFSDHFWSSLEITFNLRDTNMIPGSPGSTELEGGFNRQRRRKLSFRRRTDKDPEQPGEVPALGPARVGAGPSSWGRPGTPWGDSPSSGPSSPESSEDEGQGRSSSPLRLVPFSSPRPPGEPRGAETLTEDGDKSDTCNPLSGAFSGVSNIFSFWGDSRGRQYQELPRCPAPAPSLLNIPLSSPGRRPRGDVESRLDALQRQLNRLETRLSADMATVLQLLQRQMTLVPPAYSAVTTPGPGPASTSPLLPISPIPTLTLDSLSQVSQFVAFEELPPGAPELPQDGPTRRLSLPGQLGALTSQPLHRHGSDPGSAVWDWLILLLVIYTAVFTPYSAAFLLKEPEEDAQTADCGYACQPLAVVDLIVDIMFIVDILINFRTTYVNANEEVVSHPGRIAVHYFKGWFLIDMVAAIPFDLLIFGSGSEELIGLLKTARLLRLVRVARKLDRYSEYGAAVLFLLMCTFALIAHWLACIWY
Experimental: as §1, §2, §3, §4, §5

T1 sequence (O70344 whole entry): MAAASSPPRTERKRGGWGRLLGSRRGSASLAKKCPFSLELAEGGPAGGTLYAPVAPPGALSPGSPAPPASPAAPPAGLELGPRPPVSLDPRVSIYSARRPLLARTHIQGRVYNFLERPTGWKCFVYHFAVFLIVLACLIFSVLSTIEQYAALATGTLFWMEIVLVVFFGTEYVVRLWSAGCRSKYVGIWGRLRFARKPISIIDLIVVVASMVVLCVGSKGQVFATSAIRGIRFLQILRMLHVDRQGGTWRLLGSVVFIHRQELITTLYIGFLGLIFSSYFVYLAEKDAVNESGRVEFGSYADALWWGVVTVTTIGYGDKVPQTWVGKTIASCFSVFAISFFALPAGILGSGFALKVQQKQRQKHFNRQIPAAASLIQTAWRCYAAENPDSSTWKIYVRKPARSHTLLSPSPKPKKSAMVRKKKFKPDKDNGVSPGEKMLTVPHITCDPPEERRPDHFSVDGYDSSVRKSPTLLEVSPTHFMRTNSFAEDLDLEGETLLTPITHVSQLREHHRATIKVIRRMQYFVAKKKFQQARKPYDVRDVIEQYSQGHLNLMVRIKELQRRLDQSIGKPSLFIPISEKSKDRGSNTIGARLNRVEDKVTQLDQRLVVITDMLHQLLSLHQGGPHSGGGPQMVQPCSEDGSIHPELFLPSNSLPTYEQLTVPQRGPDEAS
T1 sequence (Q60409 whole entry partner): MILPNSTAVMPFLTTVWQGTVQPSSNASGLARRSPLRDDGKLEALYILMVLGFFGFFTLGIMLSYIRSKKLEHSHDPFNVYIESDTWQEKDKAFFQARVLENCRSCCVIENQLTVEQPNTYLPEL

CC1CCC(C(C)C)C(P(=O)(c2ccccc2)c2ccccc2)C1 (centres unmarked) [Compound D, (2-Isopropyl-5-methylcyclohexyl)diphenylphosphine oxide]
effect on ventricular function ([1]; dog, in vivo): no indication of effect on ventricular function
time to termination of atrial arrhythmia after test agent administration ([1]; i.v. bolus 1 mg/kg (three dogs) or 10 mg/kg (fourth dog)): 10 to 120 s
atrial rate during atrial flutter ([1]; i.v. bolus 1 mg/kg (three dogs) or 10 mg/kg (fourth dog), initial rates 450-560 cycles/min): slowed atrial rate
termination of atrial arrhythmia ([1]; i.v. bolus 1 mg/kg, in three of four dogs): terminated the atrial arrhythmia
termination of atrial arrhythmia ([1]; i.v. bolus 10 mg/kg, in the fourth of four dogs): terminated the atrial arrhythmia
% Block (Guinea Pig Ventricle) IK1 [2]: 15%
inhibition at 3 µM [3]: 25%
inhibition at 3 µM [4]: 3%
